The molecules below were run against T1, MLLT3 (AF9) (Homo sapiens, UniProt P42568) (assay: AlphaScreen).
T1 sequence (P42568 1-138 limits assumed): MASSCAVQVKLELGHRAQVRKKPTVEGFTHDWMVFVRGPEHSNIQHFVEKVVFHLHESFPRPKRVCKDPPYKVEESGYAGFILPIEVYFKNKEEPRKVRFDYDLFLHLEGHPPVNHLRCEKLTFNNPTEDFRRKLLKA
Assay type: binding

Question: How did the IC50 turn out when `CCN(CC)Cc1ccc(CNC(=O)N2CCN(c3ncccn3)CC2)cc1` [compound 3, piperazine-1-carboxamide 3] was run?
Answer: Its IC50 is over 100 µM.

Question: Which IC50 does the source give for `COc1ccc(CNC(=O)N2CCN(c3ccc(C(C)=O)cc3)CC2)cn1` [compound 1, piperazine-1-carboxamide 1] here?
Answer: The IC50 was 7.8 µM.

Question: `O=C(NCc1ccc(CN2CCCC2)cc1)N1CCN(C(=O)c2cccs2)CC1` [compound 2, piperazine-1-carboxamide 2] was tested. Which IC50 did it give?
Answer: Its IC50 is 33 µM.
